In PubChem BioAssay AID1918958 (Molecular Pharmacology Branch, DTP, NCI, 2023):
Values joined by “and” are separate entries in the source; they are usually repeats but may differ in a detail not shown here. Equal entries are not always repeated. Blank lines part the entries; values can stand above or below the molecule they belong to.

Test system: NCI-H196 complex spheroid viability
Assay: Anticancer human tumor NCI-H196 cell line growth inhibition [LSD1];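 also: spheroids exposed to agents for 7 days before readout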;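 as to viability, T/C: 100% = DMSO vehicle control viability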
Settings: for viability, T/C: stronger effect = lower value
From the text: Multicellular complex tumor spheroid response to LSD1 Inhibitor Iadademstat in combination with a variety of drugs and investigational agents in selected tumor cell lines
The current study was undertaken to assess response to LSD1 inhibitors in combination with standard-of-care drugs and investigational agents in solid tumor complex spheroid models as well as in the K-562 leukemia. Complex spheroids include a stromal component modeled by human endothelial cells (HUVEC) and fibroblasts modeled by human mesenchymal stem cells (MSCs). The concentration ranges selected for each drug and investigational agent were based upon clinically achievable concentrations if the clinical Cmax of the agent was known.
Compounds. The drugs and investigational agents used in this study are listed on Table 1. All of the agents used, including staurosporine (NSC755774) and gemcitabine (NSC613327), were obtained from the Developmental Therapeutics Program, NCI. FDA-approved anticancer drugs are available from the NCI at http://dtp.nci.nih.gov/branches/dscb/oncology_drugset_explanation.html. Drugs and investigational agents were >95% pure by proton nuclear magnetic resonance (NMR) and liquid chromatography/mass spectrometry (LC/MS). Stock solutions were prepared at 400x in DMSO, stored at -70 degrees C, and diluted in fresh medium prior to their use. The final concentration of DMSO in cell culture wells never exceeded 0.25% (v/v). The FDA-approved anticancer drug set is available from the Developmental Therapeutics Program at https://dtp.cancer.gov/organization/dscb/obtaining/available_plates.htm. All drugs and investigational agents were tested over a range starting from a high concentration at or near the clinical Cmax and decreasing in half-log increments. If the clinical Cmax for an agent had not been determined, the highest concentration tested was 10 microM.
Cell Lines. The patient-derived cancer cell (PDC) lines: 292921-168-R-J2-PDC, K24384-001-R-PDC, and 521955-158-R2-J5-PDC pancreatic carcinomas, 556581-035-R-J1 ovarian carcinoma, 324938-238-R-J1-PDC, 855422-203-R-J1-PDC and 883617-216-R-J1-PDC urothelial bladder carcinomas, 743489-274-T-PDC renal cell carcinoma, 138582-R-J1 Merkel cell tumor, K60290-347-R-J1 and K57222-313-R-J1-PDC glioblastomas, 653999-131-R-J2-PDC, LG0703-F948-PDC, and 349418-098-R-PDC non-small cell lung carcinomas, 885512-296-R-J2-PDC, 171881-019-R-J1-PDC breast carcinomas and 186277-243-T-J2-PDC and 233499-124-R-J2-PDC colon carcinomas were obtained from the NCI Patient-Derived Models Repository (PDMR, https://pdmr.cancer.gov). The established cell lines NCI/ADR-RES (RRID:CVCL_14520 and OVCAR-5 (RRID:CVCL_1628) ovarian carcinomas, 786-O (RRID:CVCL_1051) and A498 (RRID:CVCL_A498) renal cell carcinoma, NCI-H211 (ATCC, cat. CRL-5824; RRID:CVCL_1529), NCI-H196 (ATCC, cat. CRL-5823, RRID:CVCL_1509), SW 1271 (ATCC, cat. CRL-2177, RRID:CVCL_1716) and NCI-H1876 (ATCC, cat. CRL-5902, RRID:CVCL_1503) small cell lung carcinomas, MDA-MB-231 (RRID:CVCL_0062) and MDA-MB-468 (RRID:CVCL_0419)breast carcinomas (10-12). Pooled donor human umbilical vein endothelial cells (HUVEC, Lonza, cat. CC-2519) and human mesenchymal stem cells (hMSC, Lonza, cat. PT-2501) were purchased from Lonza (Walkersville, MD).
Cell Culture. All cells were maintained in an incubator at 37 degrees C and 5% CO2 with 95% humidity. The PDC lines were cultured according to standard operating procedures established by the NCI PDMR (https://pdmr.cancer.gov). Briefly all PDCs were thawed and cultured in Matrigel-coated flasks prepared with a working solution of 1X Ham's F-12 nutrient mix, without supplementation (Invitrogen, Waltham, MA, cat. 11765054), 100 U/mL penicillin-streptomycin (Invitrogen, cat. 15140122), and 2.5% Matrigel (Corning Inc., Corning, NY, cat. 354248) for the first three passages. […]

Compound: COc1ccc([C@@H](O)c2cc(-c3ncnc4cc(N5CCOCC5)ccc34)c(F)cc2Cl)nn1
viability, T/C (compound 0.0316 µM): 97.9% and 93.4%
viability, T/C (compound 0.1 µM): 100% and 90.9%
viability, T/C (compound 0.316 µM): 90.4% and 84.7%
viability, T/C (compound 1 µM): 86.4% and 85.7%
viability, T/C (compound 3.16 µM): 83.8% and 73.6%
viability, T/C (compound 10 µM): 57.7% and 53.2%
IC50 (curve of compound): > 10000 nM

Compound: Cn1ncnc1C1c2n[nH]c(=O)c3cc(F)cc(c23)NC1c1ccc(F)cc1 (stereo not drawn)
viability, T/C (compound 0.000316 µM): 107% and 97.8%
viability, T/C (compound 0.001 µM): 104% and 106%
viability, T/C (compound 0.00316 µM): 99.1% and 105%
viability, T/C (compound 0.01 µM): 101% and 100%
viability, T/C (compound 0.0316 µM): 96.3% and 98.4%
viability, T/C (compound 0.1 µM): 96.8% and 95.6%
IC50 (curve of compound): > 100 nM

Compound: NC1CCC(NC2CC2c2ccccc2)CC1 (stereo not drawn)
viability, T/C (compound 0.316 µM): 93.8% and 93%
viability, T/C (compound 1 µM): 96.9% [middle of 25 runs]
viability, T/C (compound 3.16 µM): 97.9% [middle of 25 runs]
viability, T/C (compound 10 µM): 97.5% [middle of 23 runs]
IC50 (compound alone, run of 02/15/2022): > 10000 nM

Compound: Nc1ccn(C2OC(CO)C(O)C2(F)F)c(=O)n1 (stereo not drawn)
viability, T/C (compound 0.000949 µM): 98.3% and 103%
viability, T/C (compound 0.003 µM): 95.8% and 101%
viability, T/C (compound 0.00949 µM): 97.9% and 81.6%
viability, T/C (compound 0.03 µM): 66.4% and 65.5%
viability, T/C (compound 0.0949 µM): 68.4% and 66.2%
viability, T/C (compound 0.3 µM): 63.8%
IC50 (curve of compound): > 300 nM

Compound: Nc1ncn(C2CC(O)C(CO)O2)c(=O)n1 (stereo not drawn)
viability, T/C (compound 0.00316 µM): 106% and 105%
viability, T/C (compound 0.01 µM): 92.3% and 102%
viability, T/C (compound 0.0316 µM): 95.5% and 99.8%
viability, T/C (compound 0.1 µM): 101% and 103%
viability, T/C (compound 0.316 µM): 100% and 102%
viability, T/C (compound 1 µM): 93.5% and 97.9%
IC50 (curve of compound): > 1000 nM

Compound: Nc1ncn(C2CC(O)C(CO)S2)c(=O)n1 (stereo not drawn)
viability, T/C (compound 0.000949 µM): 96.8% and 102%
viability, T/C (compound 0.003 µM): 105% and 111%
viability, T/C (compound 0.00949 µM): 103% and 106%
viability, T/C (compound 0.03 µM): 106% and 111%
viability, T/C (compound 0.0949 µM): 111% and 116%
viability, T/C (compound 0.3 µM): 100% and 104%
IC50 (curve of compound): > 300 nM

Compound: O=C(C=Cn1cnc(-c2cc(C(F)(F)F)cc(C(F)(F)F)c2)n1)NNc1cnccn1
viability, T/C (compound 0.00316 µM): 28.4% and 33.1%
viability, T/C (compound 0.01 µM): 31% and 30.9%
viability, T/C (compound 0.0316 µM): 19.2% and 19.6%
viability, T/C (compound 0.1 µM): 17.7% and 14.5%
viability, T/C (compound 0.316 µM): 13.8% and 10.2%
viability, T/C (compound 1 µM): 7.27% and 6.31%
IC50 (curve of compound): < 3.16 nM

More lines, main results first:

IC50 (compound alone, run of 02/21/2022): > 10000 nM
Compound: NC1CC1c1ccc(-c2cccc(O)c2)cc1 (stereo not drawn)
viability, T/C (compound 0.316 µM): 95.9% [middle of 25 runs]
viability, T/C (compound 1 µM): 97.8% [middle of 25 runs]

IC50 (curve of compound): > 3000 nM
Compound: NS(=O)(=O)OCC1CC(n2ccc3c(NC4CCc5ccccc54)ncnc32)CC1O (stereo not drawn)
viability, T/C (compound 0.00949 µM): 109% and 80.7%
viability, T/C (compound 0.03 µM): 94.8% and 79.4%
viability, T/C (compound 0.0949 µM): 75.2% and 67.4%
viability, T/C (compound 0.3 µM): 83.8% and 77.4%
viability, T/C (compound 0.949 µM): 79.3% and 74.5%
viability, T/C (compound 3 µM): 67.7% and 66.8%

IC50 (curve of compound): 63.2 nM and 65.4 nM
Compound: Nc1ccccc1NC(=O)c1ccc(CNC(=O)OCc2cccnc2)cc1
viability, T/C (compound 0.00949 µM): 81.1% and 83.5%
viability, T/C (compound 0.03 µM): 65.5% and 73%
viability, T/C (compound 0.0949 µM): 42.2% and 39%
viability, T/C (compound 0.3 µM): 13.3% and 8.4%
viability, T/C (compound 0.949 µM): 0.4% and 0.47%
viability, T/C (compound 3 µM): 1.02% and 0.51%

IC50 (curve of compound): 155 nM and 119 nM
Compound: O=C(C=Cc1cccc(S(=O)(=O)Nc2ccccc2)c1)NO
viability, T/C (compound 0.00949 µM): 107% and 99.7%
viability, T/C (compound 0.03 µM): 103% and 104%
viability, T/C (compound 0.0949 µM): 70.1% and 56.7%
viability, T/C (compound 0.3 µM): 22.9% and 15%
viability, T/C (compound 0.949 µM): 0.4%
viability, T/C (compound 3 µM): 0.41% and 0.39%

IC50 (curve of compound): > 10000 nM
Compound: O=C(c1cc(Cc2n[nH]c(=O)c3ccccc23)ccc1F)N1CCN(C(=O)C2CC2)CC1
viability, T/C (compound 0.0316 µM): 91.2% and 89.6%
viability, T/C (compound 0.1 µM): 93.7% and 93.2%
viability, T/C (compound 0.316 µM): 91.9% and 90%
viability, T/C (compound 1 µM): 94% and 84.9%
viability, T/C (compound 3.16 µM): 89.9% and 91.9%
viability, T/C (compound 10 µM): 95.3% and 95.9%
